According to PMC5342071, “A first generation inhibitor of human Greatwall kinase, enabled by structural and functional characterisation of a minimal kinase domain construct” (Oncotarget, 2016):

T1: hGWL^FL (Homo sapiens, UniProt Q96GX5)
T1 construct: N-terminally FLAG-tagged full-length human GWL; made in house; host or cells: HEK293T cells, transfected and nocodazole-arrested; protein captured on anti-Flag M2 beads
T1 sequence (Q96GX5 1-879): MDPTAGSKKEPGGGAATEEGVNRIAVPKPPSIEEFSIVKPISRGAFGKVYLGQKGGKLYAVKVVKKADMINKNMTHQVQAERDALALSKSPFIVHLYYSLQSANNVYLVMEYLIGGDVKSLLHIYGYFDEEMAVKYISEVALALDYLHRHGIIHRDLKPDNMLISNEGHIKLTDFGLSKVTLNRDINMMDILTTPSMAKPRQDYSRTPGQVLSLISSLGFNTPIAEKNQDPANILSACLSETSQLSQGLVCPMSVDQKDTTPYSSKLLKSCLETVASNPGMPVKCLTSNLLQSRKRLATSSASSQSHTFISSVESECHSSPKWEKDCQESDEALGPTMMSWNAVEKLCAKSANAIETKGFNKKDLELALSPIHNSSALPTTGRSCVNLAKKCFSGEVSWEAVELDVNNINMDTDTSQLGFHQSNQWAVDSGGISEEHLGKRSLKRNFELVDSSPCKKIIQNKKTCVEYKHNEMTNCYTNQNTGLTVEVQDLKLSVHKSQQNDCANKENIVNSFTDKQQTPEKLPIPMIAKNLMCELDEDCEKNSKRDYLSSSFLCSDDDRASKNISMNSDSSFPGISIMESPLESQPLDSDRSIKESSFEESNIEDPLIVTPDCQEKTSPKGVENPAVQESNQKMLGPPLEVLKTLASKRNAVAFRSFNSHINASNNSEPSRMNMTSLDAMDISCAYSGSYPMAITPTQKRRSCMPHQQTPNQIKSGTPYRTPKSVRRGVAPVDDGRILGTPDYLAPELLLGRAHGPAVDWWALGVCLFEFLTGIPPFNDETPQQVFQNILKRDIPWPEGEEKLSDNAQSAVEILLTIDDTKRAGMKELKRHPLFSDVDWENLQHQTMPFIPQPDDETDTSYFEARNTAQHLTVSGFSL


Assays:
Type in all cases: biochemical
hGWL-KinDom [1] = target: T2, hGWL-KinDom (Homo sapiens, UniProt Q96GX5); assay: Kinase-Glo Max luminescence kinase assay with hGWL-KinDom; details: for Km / kcat: substrate of hGWL-KinDom, Kinase-Glo Max
T2 construct: that encoded amino acids (aa) 1-194 + ‘RTFC’ + 740-879 of hGWL; GST (rhinovirus 3C-protease cleavable) (N, cleaved yes); made in house; host or cells: E. coli Rosetta2(DE3)
Protocol: Non-radioactive kinase assays were set-up by combining hGWL-KinDom (305 µM in 20 mM HEPES pH 7.5, FL 500 mM NaCl, and 0.5 mM TCEP) diluted to desired concentration or immunoprecipitated hGWL on beads with ultra-pure ATP [Promega, 25 µM] and His-tagged substrate  α-endosulfine (ENSA, 2 µM) in kinase assay buffer (50 mM Tris-HCl pH 7.5, 0.5 mM EGTA, 150 mM NaCl, 0.1% v/v NP-40 and 15 mM MgCl2). The reaction was allowed to proceed for 30 min at 37 °C or another indicated time-point after which it was stopped with either SDS loading buffer (5X buffer, including 0.25 % w/v Bromophenol blue, 0.5 M DTT (dithiothreitol), 50% v/v Glycerol, 10% v/v SDS (sodium dodecyl sulphate), and 0.25M Tris-HCl pH 6.8) or Kinase-Glo Max reagent [Promega]. Recombinant His-tagged ENSA was purified using Ni-NTA agarose [QIAGEN] from BL21 E. coli following the manufacturer’s recommended protocol. […]
(§1) All kinase assays were repeated thrice per assay condition and each point on the concentration-dependent response curves represents the mean ± […]
After stopping the above non-radioactive kinase assay with 1 volume of Kinase-Glo Max reagent the mixture was allowed to incubate for a further 15 min. To detect consumption of ATP, samples were transferred to white, flat-bottom 96-well plates [Thermo Fisher Scientific, Loughborough, UK] and luminescence was detected using a POLARstar Omega micro-plate reader [BMG Labtech GmbH, Ortenberg, Germany]. As this assay measures ATP, activity or ATP turnover was measured as the -ΔRLU. […]

hGWL-KinDom [2] = target: T2, hGWL-KinDom; assay: Inhibitor screen of pooled library with hGWL-KinDom (Kinase-Glo Max); details: for inhibition at 10 µM: 10 μM screening concentration, ATP concentration = 45 μM; for Rank in inhibitor screen: rank by potency in the screen
Protocol: Two small-molecule compound libraries, enriched with pharmacophores known to interact with the ATP-binding site of protein kinases, were screened as a pooled library in a Kinase-GloMax luminescence-kinase assay. page 4: […] Dynabeads [Sigma-Aldrich] overnight at 4 °C. After sequential washes with IP buffer, 1:1 mix of IP and kinase assay buffers and a final wash in kinase assay buffer, the beads were then used in the kinase assay. The reaction was stopped by adding SDS loading buffer and analysed by western blot: p-ENSA and GWL levels were detected using the anti-phospho([…] and […], Prestige) antibodies. Activity was measured as the […] ratio and % kinase activity was normalised to the DMSO control. All kinases assays were repeated thrice per assay condition and each point on the concentration-dependent response curves represents the mean ± 1 S.D. PKA, ROCK1 and CDK2 kinase assays PKA and ROCK1 assays (Promega) were carried out according to the manufacturer's protocols and CDK2 assays were carried out with Histone H1 as substrate (1 µg per 20 µl reaction) according to our Kinase-Glo Max assay. CDK2 was expressed and purified from E. coli as previously described (10). Inhibitor Screens with hGWL-KinDom Two small-molecule compound libraries, enriched with pharmacophores known to interact with the ATP- binding site of protein kinases, were kindly provided by GlaxoSmithKline and Roche. We used this pooled library (582 compounds, 10 µM screening concentrations) in a Kinase-Glo Max luminescence kinase assay (11, 12) as part of a two-point screen against hGWL-KinDom kinase activity, using ATP at fixed concentrations of […] With STU as positive control at a […] 4A,B). […] rate = 5.8%; Supplementary Figure 4A). Molecular Docking - AutoDock AT13148 and GKI-1/2 were docked into the ATP-binding site of the hGWL-KinDom crystal structure (where the disordered C-helix was homology-modelled) using AutoDock 4.2.6. PDB format files for the ligand and kinase domain were pre-processed using AutoDock Tools 1.5.6 as described in Mohamed, et al. (13). (Figure 4 and Supplementary Figure 6A,B). Immunofluorescence and Time-lapse video microscopy 2.5 X 105 HeLa cells were plated onto glass coverslips in a 6-well plate, or 4-well µ-slides [Ibidi GmbH] were seeded with 5 X 104 cells and then transfected with Qiagen AllStars negative control or Hs_MASTL_6 siRNAs (14) using Lipofectamine RNAiMax [ThermoFisher Scientific]. Media was exchanged with fresh media the next day. 48 hours after siRNA treatment, only cells to be used for immunofluorescence (IF) were treated with nocodazole (200 ng/mL) and DMSO or GKI-1 at the indicated concentration. For IF, cells were fixed, stained with primary mouse anti-GWL and rabbit anti-p-ENSA antibodies, secondary Alexa Fluor 647-conjugated anti- rabbit and Alexa Fluor 488-conjugated anti-mouse antibodies, DAPI and mounted onto glass microscope slides using Diamond Antifade Mountant [Molecular Probes, ThermoFisher Scientific]. Quantitation of IF images was performed using the […]-Content Screening Station [Olympus Life Science] which acquired 220, 40x images per cover slip. Data were normalised against the AllStars negative control siRNA treated cells and values obtained from three biological replicates were reported as the mean ± 1 S.D. To assist with selecting mitotic cells, ScanR imaging software was utilised to gate for mitotic cells using the circularity factor and total DAPI parameters. To produce time-lapse videos, after 48 hours and cell treatment with DMSO or compound (cells were treated with GKI-1 for 4-h before image acquisition) cells plated in 4-well µ-slides were imaged every 5 minutes for 8.5 hours on an Olympus IX73 microscope, using a 40 x 0.95NA air objective, and recorded on an Orca-Flash 4.0 CMOS camera [Hamatsu]. The computer program Fiji (http://www.fiji.sc/Fiji) was used to generate videos from image sequence TIF files. Data were normalised against the AllStars negative control siRNA treated cells and […]

hGWL^FL = target: T1, hGWL^FL; assay: Immunoprecipitation kinase assay with Flag-tagged hGWL^FL (p-ENSA western); details: for IC50: immunoprecipitated Flag-tagged hGWL^FL, read-out: IC50 GWL^FL; for inhibition of hGWL^FL (result in words): immunoprecipitation kinase assay
Protocol: 500 mM NaCl, and 0.5 mM TCEP) diluted to desired concentration or immunoprecipitated hGWL on beads with ultra-pure ATP [Promega, 25 µM] and His-tagged substrate  α-endosulfine (ENSA, 2 µM) in kinase assay buffer (50 mM Tris-HCl pH 7.5, 0.5 mM EGTA, 150 mM NaCl, 0.1% v/v NP-40 and 15 mM MgCl2). The […]
(dithiothreitol), 50% v/v Glycerol, 10% v/v SDS (sodium dodecyl sulphate), and 0.25M Tris-HCl pH 6.8) or Kinase-Glo Max reagent [Promega]. Recombinant His-tagged ENSA was purified using Ni-NTA agarose [QIAGEN] from BL21 E. coli following the manufacturer’s recommended protocol. […]
as §1
Immunoprecipitation Kinase Assay
HEK293T cells were transfected with 10 µg of plasmid (Flag-tagged hGWLFL or GFP; pcDNA3-EGFP, Addgene, Cambridge MA, USA) using CaCl2. […]
incubated for a further 16–18 h. Cells were collected and washed in PBS-A followed by lysis on ice for 20 min in 1mL IP buffer (50 mM Tris-HCl pH 7.5, 150 mM NaCl, 10% v/v glycerol, 0.5% v/v NP-40, 1 mM EDTA supplemented with protease and phosphatase inhibitors (Complete and PhosStop; Roche Diagnostics)). Samples were then sonicated and clarified by centrifugation at 13,000 rpm for 30 min at 4°C. To capture Flag-tagged […]
hGWLFL, 100 µl of lysate was diluted 5-fold with IP buffer and combined with 3 µl anti-Flag M2 magnetic Dynabeads [Sigma-Aldrich] overnight at 4 °C. After sequential washes with IP buffer, 1:1 mix of IP and kinase assay buffers and a final wash in kinase assay buffer, the beads were then used in the kinase assay. The reaction was stopped by adding SDS loading buffer and analysed by western blot: p-ENSA and GWL levels were detected using the anti-phospho(Ser67)-ENSA and anti-MASTL(GWL, Prestige) antibodies. Activity was measured as the p-ENSA/GWL ratio and % kinase activity was normalised to the DMSO control. All kinases assays were repeated thrice per assay condition and each point on the concentration-dependent response curves represents the mean ± 1 S.D. […]

ROCK1 = target: T3, ROCK1 (Homo sapiens, UniProt Q13464); assay: ROCK1 kinase assay (Promega)
T3 construct: purchased Promega
Protocol: (§2) hGWLFL, 100 µl of lysate was diluted 5-fold with IP buffer and combined with 3 µl anti-Flag M2 magnetic Dynabeads [Sigma-Aldrich] overnight at 4 °C. After sequential washes with IP buffer, 1:1 mix of IP and kinase assay buffers and a final wash in kinase assay buffer, the beads were then used in the kinase assay. The reaction was stopped by adding SDS loading buffer and analysed by western blot: p-ENSA and GWL levels were detected using the anti-phospho(Ser67)-ENSA and anti-MASTL(GWL, Prestige) antibodies. Activity was measured as the p-ENSA/GWL ratio and % kinase activity was normalised to the DMSO control. All kinases assays were repeated thrice per assay condition and each point on the concentration-dependent response curves represents the mean ± 1 S.D.
(§3) PKA, ROCK1 and CDK2 kinase assays […]
(§4) Data were normalised against the AllStars negative control siRNA treated cells and values obtained from 3 – 5 biological replicates were reported as the mean ± 1 S.D.

PKA = target: T4, PKA (Homo sapiens, UniProt P17612); assay: PKA kinase assay (Promega)
T4 construct: purchased Promega
Protocol: as §2, §3, §4

T2 sequence (Q96GX5 with tags, fused parts or gaps limits assumed): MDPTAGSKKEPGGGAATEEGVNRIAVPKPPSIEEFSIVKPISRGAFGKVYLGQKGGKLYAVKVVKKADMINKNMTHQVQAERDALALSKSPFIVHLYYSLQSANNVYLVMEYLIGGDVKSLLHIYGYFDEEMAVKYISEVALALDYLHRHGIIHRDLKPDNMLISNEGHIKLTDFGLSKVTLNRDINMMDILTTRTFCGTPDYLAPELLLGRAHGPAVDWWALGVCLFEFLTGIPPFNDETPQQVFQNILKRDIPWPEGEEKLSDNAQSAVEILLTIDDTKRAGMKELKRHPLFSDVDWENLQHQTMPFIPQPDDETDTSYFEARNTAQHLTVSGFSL
T3 sequence (Q13464 whole entry): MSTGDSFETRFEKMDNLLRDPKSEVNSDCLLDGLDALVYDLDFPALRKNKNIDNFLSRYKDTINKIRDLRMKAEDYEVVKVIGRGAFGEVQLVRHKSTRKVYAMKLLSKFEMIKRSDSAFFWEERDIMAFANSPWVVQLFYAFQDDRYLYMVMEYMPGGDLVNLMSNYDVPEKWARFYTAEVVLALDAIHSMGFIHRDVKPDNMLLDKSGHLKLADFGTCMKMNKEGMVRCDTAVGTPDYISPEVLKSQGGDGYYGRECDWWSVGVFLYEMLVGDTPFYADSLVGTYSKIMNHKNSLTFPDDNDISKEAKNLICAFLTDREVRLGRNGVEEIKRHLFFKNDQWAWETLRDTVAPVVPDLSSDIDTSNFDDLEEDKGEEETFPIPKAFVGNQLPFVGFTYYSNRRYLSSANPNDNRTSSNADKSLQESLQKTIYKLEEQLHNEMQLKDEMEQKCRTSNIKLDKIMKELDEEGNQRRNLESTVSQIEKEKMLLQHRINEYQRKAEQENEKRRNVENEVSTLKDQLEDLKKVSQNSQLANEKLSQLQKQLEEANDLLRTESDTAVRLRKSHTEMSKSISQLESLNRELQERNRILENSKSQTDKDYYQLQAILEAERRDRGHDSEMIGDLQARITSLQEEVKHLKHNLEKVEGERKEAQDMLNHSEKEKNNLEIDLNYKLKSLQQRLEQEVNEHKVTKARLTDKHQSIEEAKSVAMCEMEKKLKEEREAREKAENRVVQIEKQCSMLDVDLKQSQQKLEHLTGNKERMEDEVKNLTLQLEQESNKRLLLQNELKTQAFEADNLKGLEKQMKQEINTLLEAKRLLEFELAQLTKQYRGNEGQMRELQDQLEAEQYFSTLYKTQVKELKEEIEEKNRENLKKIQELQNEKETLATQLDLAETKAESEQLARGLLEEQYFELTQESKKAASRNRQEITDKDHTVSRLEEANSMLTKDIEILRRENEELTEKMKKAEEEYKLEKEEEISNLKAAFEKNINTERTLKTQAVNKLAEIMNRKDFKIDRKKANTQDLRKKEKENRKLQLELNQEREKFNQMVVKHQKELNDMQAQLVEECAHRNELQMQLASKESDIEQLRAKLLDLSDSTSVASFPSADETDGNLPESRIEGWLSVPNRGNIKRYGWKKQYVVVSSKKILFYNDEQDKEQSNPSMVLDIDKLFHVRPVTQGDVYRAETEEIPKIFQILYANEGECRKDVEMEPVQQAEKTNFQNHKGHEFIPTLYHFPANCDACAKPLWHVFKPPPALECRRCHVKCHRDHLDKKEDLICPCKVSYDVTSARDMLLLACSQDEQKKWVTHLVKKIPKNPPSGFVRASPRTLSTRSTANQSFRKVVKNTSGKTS

| Molecule | Km (hGWL-KinDom [1]) [µM] | kcat (hGWL-KinDom [1]) [s⁻¹] | inhibition at 10 µM (hGWL-KinDom [2]) [%] | Rank in inhibitor screen (hGWL-KinDom [2]) | IC50 (hGWL^FL) [nM] | inhibition of hGWL^FL (result in words) (hGWL^FL) | also measured |
| --- | --- | --- | --- | --- | --- | --- | --- |
| Nc1ncnc2c1ncn2[C@@H]1O[C@H](COP(=O)(O)OP(=O)(O)OP(=O)(O)O)[C@@H](O)[C@H]1O [ATP] | 17.2 ± 2.4 | 10.4 ± 0.48 |  |  |  |  |  |
| CNC(C#Cc1c(F)ccc2c1C(=Cc1[nH]ccc1OC)C(=O)N2)CO (stereo not drawn) [GRI-2] |  |  | 37 | 5 | > 100000 | did not demonstrably inhibit |  |
| NC[C@@](O)(c1ccc(Cl)cc1)c1ccc(-c2cn[nH]c2)cc1 [AT13148, reference compound] |  |  |  |  | 5900 |  | IC50 (ROCK1; refers to Table 2): ~6 nM; IC50 (ROCK1; ± S.D.): 11.4 ± 4 nM; IC50 (PKA; refers to Table 2): ~11 nM; IC50 (PKA; ± S.D.): 6.13 ± 2 nM; IC50 (hGWL-KinDom [1]; Kinase-Glo Max assay, read-out: IC50 GWL-KinDom): 125 ± 1.7 nM; inhibitory ratio (IC50 GWL^FL/IC50 GWL-KinDom) (hGWL^FL; for GKI-1: EC50 hGWL^FL vs IC50 hGWL-KinDom): 45; AT13148 IC50/STU IC50 (hGWL^FL; hGWL^FL inhibition): ~ 2 |
| Clc1ccc(Nc2ccc(-c3cn[nH]c3)cc2)cc1 [GKI-2, N-(4-chorophenyl)-4-(1H-pyrazol-4-yl)aniline] |  |  |  |  |  | did not demonstrably inhibit |  |
| COc1cc[nH]c1/C=C1\C(=O)Nc2ccc(F)c(C#CC3(O)CCNCC3)c21 [GRI-1] |  |  | 67.6 | 1 | > 100000 | did not demonstrably inhibit |  |
| ENSA: His-tagged recombinant α-endosulfine, GWL substrate (protein, UniProt O43768 2-121, looked up, His tag, His-tagged recombinant α-endosulfine, GWL substrate) Alpha-endosulfine: SQKQEEENPAEETGEEKQDTQEKEGILPERAEEAKLKAKYPSLGQKPGGSDFLMKRLQKGQKYFDSGDYNMAKAKMKNKQLPSAGPDKNLVTGDHIPTPQDLPQRKSSLVTSKLAGGQVE | 1.6 ± 0.3 | 0.2 ± 0.01 |  |  |  |  |  |
